Test results: paper PMC9139979, “Features of ZED1227: The First-In-Class Tissue Transglutaminase Inhibitor Undergoing Clinical Evaluation for the Treatment of Celiac Disease” (Cells, 2022)
Entries after “also recorded” stand apart in the source; their conditions may differ.

System: Caco-2 cells
Test: EZ4U viability assay, Caco-2
Type: cell-based
Details: up to 1,000 μM, 48 h
Method: Cytotoxicological analysis of ZED1227 was performed using Huh7 (human liver carcinoma, CLS Cell Lines Service GmbH, Eppelheim, Germany) and Caco-2 cells (human epithelial colorectal adenocarcinoma, Sigma Aldrich, Taufkirchen, Germany) with respect to the effect on proliferation and viability, according to the assay protocols provided by the manufacturers of the respective kits. The Cell Proliferation ELISA (BrdU, colorimetric) was purchased from Roche (Mannheim, Germany), whereas the Cell Proliferation and Cytotoxicity Assay EZ4U was purchased from Biomedica (Vienna, Austria). […]
The EZ4U assay (determination of viability) was performed by incubating the cells with ZED1227 working solution (1% DMSO in culture medium) up to a concentration of 1,000 μM for 48 h, followed by addition of a yellow tetrazolium reagent (not further specified) into the culture medium. The non-toxic tetrazolium salts were reduced to red-colored formazan which was quantified spectrophotometrically. […]

SMILES: CCC(CC)CNC(=O)Cn1cccc(NC(=O)[C@H](CC/C=C/C(=O)OC)NC(=O)c2cncn2C)c1=O [ZED1227, (S,E)-Methyl 7-(1-(2-(2-ethylbutylamino)-2-oxoethyl)-2-oxo-1,2-dihydropyridin-3-ylamino)-6-(1-methyl-1H-imidazole-5-carboxamido)-7-oxohept-2-enoate]
- Cytotoxicity: Viability, Caco-2 cells: not cytotoxic up to 1,000 μM; also recorded: no effect up to 1,000 μM no effect up to 1,000 μM no effect up to 1,000 μM no effect up to 1,000 μM
